Patent publication US20150051270A1, “Novel Cyclic Phenoxy Compounds and Improved Treatments for Cardiac and Cardiovascular Disease” (University of Nottingham, priority 2012, published 2015)

Legend:
[1] = target: T1, human beta1-adrenoceptor (Homo sapiens, UniProt P08588); assay: 3H-CGP 12177 whole cell binding, beta1; conditions: 3H-CGP12177 whole-cell binding, CHO cells expressing human beta1-adrenoceptor, given as negative Log KD; for Kd: read-out: Beta 1 Log KD (converted)
T1 construct: expressed in transfected cells; host or cells: CHO cells
T1 sequence (P08588 whole entry): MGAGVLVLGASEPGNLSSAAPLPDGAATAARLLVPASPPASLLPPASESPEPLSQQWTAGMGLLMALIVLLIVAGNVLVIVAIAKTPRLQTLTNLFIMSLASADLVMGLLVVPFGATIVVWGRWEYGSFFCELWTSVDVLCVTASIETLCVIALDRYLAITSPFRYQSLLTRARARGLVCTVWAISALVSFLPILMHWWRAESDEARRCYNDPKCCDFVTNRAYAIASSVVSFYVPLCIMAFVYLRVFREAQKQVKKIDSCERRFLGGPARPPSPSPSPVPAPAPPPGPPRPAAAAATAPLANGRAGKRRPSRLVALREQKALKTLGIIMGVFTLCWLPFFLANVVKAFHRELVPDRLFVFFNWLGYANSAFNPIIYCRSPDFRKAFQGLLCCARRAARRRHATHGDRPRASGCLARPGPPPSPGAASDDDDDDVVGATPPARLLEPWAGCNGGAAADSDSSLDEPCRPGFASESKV
Description: (§1) Selectivity of ligands for the three beta-adrenoceptors was assessed by whole-cell binding studies using ^3H-CGP12177 in CHO cells expressing the human beta1, beta2 or beta3-adrenoceptors respectively essentially as described by Baker (2005; Br. J Pharmacol: 144, 317-22). Values shown are KD values determined as described by Baker (2005). KD represents the concentration of compound required to occupy 50% of the receptors in cells or tissues.
(§2) The selectivity of a ligand is given by the ratio of beta-1 to beta-2 KD. Accordingly a difference of one in the logarithmic values thereof represents a 10-fold selectivity, a difference of 2 represents 100-fold selectivity and a difference of 3 represents 1000-fold selectivity etc.

[2] = target: T2, human beta2-adrenoceptor (Homo sapiens, UniProt P07550); assay: 3H-CGP 12177 whole cell binding, beta2; conditions: 3H-CGP12177 whole-cell binding, CHO cells expressing human beta2-adrenoceptor, given as negative Log KD; for Kd: read-out: Beta 2 Log KD (converted)
T2 construct: expressed in transfected cells; host or cells: CHO cells
Description: as §1, §2

Molecule | Beta 1 Log KD [1] | Beta 2 Log KD [2] | Kd [1] [nM] | Kd [2] [nM] | melting point [°C]
1-(2-(3-(3-(Ethoxymethyl)-2,3-dihydrobenzo[b][1,4]dioxin-6-yloxy)-2-hydroxypropylamino)ethyl)-3-(4-hydroxyphenyl)urea and 1-(2-(3-(2-(ethoxymethyl)-2,3-dihydrobenzo[b][1,4]dioxin-6-yloxyl-2-hydroxypropylamino)ethyl)-3-(4-hydroxyphenyl)urea [Example 76] | −6.84 | −4.69 |  |  | 
O=C(NCCNCC(O)C1COc2ccccc2O1)Nc1cccc(Cl)c1 (stereo not shown) [Example 46a, 1-(3-chlorophenyl)-3-(2-(2-(2,3-dihydrobenzo[b][1,4]dioxin-2-yl)-2-hydroxyethylamino)ethyl)urea] |  |  | 3.98 | 57.5 | 141
O=C(NCCNCC(O)COc1ccc2c(c1)OC(c1ccccc1)CC2=O)Nc1cccc(Cl)c1 (stereo not shown) [Example 4a, 1-(3-chlorophenyl)-3-(2-(2-hydroxy-3-(4-oxo-2-phenylchroman-7-yloxy)propylamino)ethyl)urea] |  |  | 407 | 3090 | 
CCOC(=O)c1cc2cc(OCC(O)CNCCNC(=O)Nc3cccc(Cl)c3)ccc2o1 (stereo not shown) [Example 24a, Ethyl-5-(3-(2-(3-(3-Chlorophenyl)ureido)ethylamino)-2-hydropropoxy)benzofuran-2-carboxylate] | −6.50 | −5.27 |  |  | 
O=C(NCCNCC(O)COc1ccc2oc(-c3ccccc3)cc(=O)c2c1)Nc1cccc(Cl)c1 (stereo not shown) [Example 4b, 1-(3-chlorophenyl)-3-(2-(2-hydroxy-3-(4-oxo-2-phenyl-4H-chromen-6-yloxy)propylamino)ethyl)urea] |  |  | 617 | 4470 | 165
NC(=O)c1cc2cc(OCC(O)CNCCNC(=O)Nc3cccc(Cl)c3)ccc2o1 (stereo not shown) [Example 24b, 5-(3-(2-(3-(3-chlorophenyl)ureido)ethylamino)-2-hydropropoxy)benzofuran-2-carboxamide] |  |  | 501 | 6460 | 
O=C(NCCNCC(O)C1COc2ccccc2O1)Nc1ccc(O)cc1 (mixture of isomers) [Example 46b, 1-(2-(2-(2,3-dihydrobenzo[b][1,4]dioxin-2-yl)-2-hydroxyethylamino)ethyl)-3-(4-hydroxyphenyl)urea] |  |  | 11 | 97.7 | 141
Cc1cc(=O)oc2ccc(OCC(O)CNCCNC(=O)Nc3cccc(Cl)c3)cc12 (stereo not shown) [Example 4d, 1-(3-chlorophenyl)-3-(2-(2-hydroxy-3-(4-methyl-2-oxo-2H-chromen-6-yloxy)propylamino)ethyl)urea] |  |  | 389 | 4470 | 158
O=C(NCCNCC(O)COc1ccc2oc(=O)ccc2c1)Nc1cccc(Cl)c1 (stereo not shown) [Example 4c, 1-(3-chlorophenyl)-3-(2-(2-hydroxy-3-(2-oxo-2H-chromen-6-yloxy)propylamino)ethyl)urea] |  |  | 355 | 9330 | 160

Second part, the molecule after the results:

Beta 1 Log KD [1] | Beta 2 Log KD [2] | Kd [1] [nM] | Kd [2] [nM] | melting point [°C] | Molecule
 |  | 257 | 10200 | 131.5 | CCOCc1cc2cc(OCC(O)CNCCNC(=O)Nc3ccc(O)cc3)ccc2o1 (stereo not shown) [Example 610a, 1-(2-(3-(2-(Ethoxymethyl)benzofuran-5-yloxy)-2-hydroxypropylamino)ethyl)-3-(4-hydroxyphenyl)urea]
−6.78 | −4.79 |  |  |  | CCOCC1Cc2cc(OCC(O)CNCCNC(=O)Nc3ccc(O)cc3)ccc2O1 (stereo not shown) [Example 610b]
 |  | 155 | 44700 |  | O=C(NCCNCC(O)c1cc2cc(OCCOC3CCCC3)ccc2o1)Nc1ccc(O)cc1 (stereo not shown) [Example 63b, 1-(2-(2-(5-(2-(cyclopentyloxy)ethoxy)benzofuran-2-yl)-2-hydroxyethylamino)ethyl)-3-(4-hydroxyphenyl)urea]
 |  | 537 | 26900 |  | O=C(NCCNCC(O)C1Cc2cc(OCCOC3CCCC3)ccc2O1)Nc1ccc(O)cc1 (stereo not shown) [Example 63a, 1-(2-(2-(5-(2-(cyclopentyloxy)ethoxy)-2,3-dihydrobenzofuran-2-yl)-2-hydroxyethylamino)ethyl)-3-(4-hydroxyphenyl)urea]
 |  | 224 | 3160 | 151 | COc1ccc2oc(C(O)CNCCNC(=O)Nc3ccc(O)cc3)cc2c1 (stereo not shown) [Example 63d]
 |  | 46.8 | 525 | 152.5 | Cc1ccc2cc(C(O)CNCCNC(=O)Nc3ccc(O)cc3)oc2c1 (stereo not shown) [Example 63c]
−6.55 | −5.16 |  |  |  | 1-(2-(2-Hydroxy-3-(2-methylbenzofuran-5-yloxy)propylamino)ethyl)-3-(4-hydroxyphenyl)urea [Example 610c]
